pEC50, pIC50, pKd: −log10 of the molar value. In brackets after ≈: the same amount, converted by molar mass. Activity calls are given as the source filed them. No cut-off for these calls is given here.
Legend:
MC-38 [1] = assay: Antitumor activity against mouse MC38 cells implanted in C57BL/6J mouse assessed as tumor growth inhibition at 5 mg/kg, po measured for 20 days; format: functional; conditions: MC-38, 480 h, time 20 day, read-out: TGI
[2] = target: Programmed cell death 1 ligand 1 (Homo sapiens, UniProt Q9NZQ7); assay: Binding affinity to his-tagged human PD-L1 assessed as dissociation constant by SPR analysis
Programmed cell death 1 ligand 1 (Homo sapiens, UniProt Q9NZQ7), sequence (Q9NZQ7 whole entry): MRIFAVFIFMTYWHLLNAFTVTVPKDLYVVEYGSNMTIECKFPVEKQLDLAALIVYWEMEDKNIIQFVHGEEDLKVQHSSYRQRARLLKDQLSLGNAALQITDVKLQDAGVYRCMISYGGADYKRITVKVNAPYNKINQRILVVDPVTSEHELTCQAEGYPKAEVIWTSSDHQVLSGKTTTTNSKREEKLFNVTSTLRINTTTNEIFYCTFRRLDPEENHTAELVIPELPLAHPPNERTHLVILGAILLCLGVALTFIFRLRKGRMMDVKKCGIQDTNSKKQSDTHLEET

[3] = target: Programmed cell death protein 1 (Homo sapiens) (UniProt Q15116); assay: Inhibition of human PD-1 expressed in Jurkat T cells co-transfected with NFAT by automated microplate spectrophotometer analysis; format: cell-based
Programmed cell death protein 1 (Homo sapiens), sequence (Q15116 whole entry): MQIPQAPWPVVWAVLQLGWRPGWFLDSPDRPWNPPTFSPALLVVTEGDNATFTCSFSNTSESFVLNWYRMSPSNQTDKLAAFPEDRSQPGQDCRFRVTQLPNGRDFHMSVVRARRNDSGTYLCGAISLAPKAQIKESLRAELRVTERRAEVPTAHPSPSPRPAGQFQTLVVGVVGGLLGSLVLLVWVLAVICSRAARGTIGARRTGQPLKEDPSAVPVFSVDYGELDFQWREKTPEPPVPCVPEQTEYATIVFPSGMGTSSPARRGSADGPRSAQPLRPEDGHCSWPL

[4] = target: T1, Programmed cell death protein 1/Programmed cell death 1 ligand 1 (Homo sapiens, UniProt Q15116+Q9NZQ7); assay: Inhibition of interaction of human PD-1 expressed in Jurkat T cells co-transfected with NFAT/human PD-L1 expressed in CHO-K1 cells co-expressing aAPC assessed as maximum relative light unit preincubated with CHO-K1 cells followed by Jurkat cell addition and measured after 6 hrs by automated microplate spectrophotometer analysis; format: cell-based
T1 sequence (Q15116 whole entry): as above
T1 sequence (Q9NZQ7 whole entry): as the sequence (Q9NZQ7 whole entry) above

CHO-K1 [5] = assay: Cytotoxicity against […] cells expressing PD-L1 assessed as reduction in cell viability at 50 uM incubated for 6 hrs by CCK-8 assay; format: toxicity, cell-based, Cricetulus griseus; conditions: chinese hamster, cho-k1, 6 h
Jurkat = assay: Cytotoxicity against human Jurkat cells expressing PD-1 assessed as reduction in cell viability at 50 uM incubated for 6 hrs by CCK-8 assay; format: functional, cell-based
[6] = target: T2, Programmed cell death protein 1/Programmed cell death 1 ligand 1 (Homo sapiens, UniProt Q9NZQ7); assay: Inhibition of PD-1/PD-L1 interaction (unknown origin) incubated for 15 min by HTRF assay; format: protein-complex assay
T2 sequence (Q15116 whole entry): as the sequence (Q15116 whole entry) above
T2 sequence (Q9NZQ7 whole entry): as the sequence (Q9NZQ7 whole entry) above

[7] = target: T2, Programmed cell death protein 1/Programmed cell death 1 ligand 1; assay: (§1) Inhibition of interaction of human PD-1 expressed in Jurkat T cells co-transfected with NFAT/human PD-L1 expressed in CHO-K1 cells co-expressing aAPC preincubated with CHO-K1 cells followed by Jurkat cell addition and measured after 6 hrs by automated microplate spectrophotometer analysis; format: cell-based
PBMC [8] = assay: Induction of antitumor immunity in human PBMC cells assessed as increase in IFN-gamma expression at 0.1 to 10 uM incubated for 12 hrs by ELISA analysis; format: functional, cell-based; conditions: dose 0.1-10 µM
PBMC [9] = assay: Induction of antitumor immunity in human PBMC cells expressing PD-L1 assessed as increase in IL-2 expression incubated for 12 hrs by ELISA analysis; format: functional, cell-based; conditions: dose 0.1-10 µM
[10] = Mutagenicity in Salmonella typhimurium TA100 by mini-Ames test; format: toxicity; conditions: salmonella enterica subsp. enterica serovar typhimurium
CHO-K1 [11] = assay: Reduction in cell surface PD-L1 expression in CHO-K1 cells expressing aAPC at 10 uM incubated for 24 hrs by immunofluorescence based microscopic analysis; format: functional; conditions: Cricetulus griseus
[12] = Tmax in Sprague-Dawley rat at 50 mg/kg, po measured upto 24 hrs by LC-MS/MS analysis; format: ADME, organism-based; conditions: in vivo
[13] = Water solubility of the compound; format: physicochemical
[14] = AUC (0 to t) in Sprague-Dawley rat at 50 mg/kg, po measured upto 24 hrs by LC-MS/MS analysis; format: ADME, organism-based; conditions: in vivo
[15] = Mutagenicity in Salmonella typhimurium TA98 by mini-Ames test; format: toxicity; conditions: salmonella enterica subsp. enterica serovar typhimurium
[16] = Half life in Sprague-Dawley rat at 50 mg/kg, po measured upto 24 hrs by LC-MS/MS analysis; format: ADME, organism-based; conditions: in vivo
[17] = Stability in human liver microsomes assessed as half life; format: ADME, Microsome
[18] = target: Programmed cell death 1 ligand 1 (Mus musculus, UniProt Q9EP73); assay: Binding affinity to his-tagged mouse PD-L1 assessed as dissociation constant by SPR analysis
Programmed cell death 1 ligand 1 (Mus musculus, UniProt Q9EP73), sequence (Q9EP73 whole entry): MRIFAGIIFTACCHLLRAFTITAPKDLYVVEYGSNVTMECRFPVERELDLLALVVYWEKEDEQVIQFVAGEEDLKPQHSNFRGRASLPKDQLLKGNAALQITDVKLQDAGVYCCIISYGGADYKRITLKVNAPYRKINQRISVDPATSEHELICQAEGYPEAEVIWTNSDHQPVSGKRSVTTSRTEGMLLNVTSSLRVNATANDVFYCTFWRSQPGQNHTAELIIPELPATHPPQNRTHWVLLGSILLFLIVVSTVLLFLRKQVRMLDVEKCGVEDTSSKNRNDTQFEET

CHO-K1 [19] = assay: Induction of PD-L1 internalization in CHO-K1 cells assessed as increase in PD-L1 concentration in cytoplasm at 10 uM incubated for 12 hrs by DIL-staining based confocal microscopic analysis analysis; format: functional, cell-based; conditions: Cricetulus griseus
CT26 = assay: Cytotoxicity against mouse CT26 cells assessed as effect on cell viability at 0.07 to 150 uM incubated for 48 hrs by CCK-8 assay; format: functional, cell-based; conditions: dose 0.07-150 µM
[20] = Cmax in Sprague-Dawley rat at 50 mg/kg, po measured upto 24 hrs by LC-MS/MS analysis; format: ADME, organism-based; conditions: in vivo
CHO-K1 [21] = assay: Reduction in cell surface PD-L1 expression in CHO-K1 cells expressing aAPC incubated for 24 hrs by flow cytometry analysis; format: functional, cell-based; conditions: Cricetulus griseus, dose 0.1-10 µM
[22] = Lipophilicity, log D of the compound at pH 7.4; format: physicochemical; conditions: buffer
[23] = target: Voltage-gated inwardly rectifying potassium channel KCNH2 (Homo sapiens, UniProt Q12809); assay: Inhibition of hERG upto 30 uM; format: toxicity
Voltage-gated inwardly rectifying potassium channel KCNH2, sequence (Q12809 whole entry): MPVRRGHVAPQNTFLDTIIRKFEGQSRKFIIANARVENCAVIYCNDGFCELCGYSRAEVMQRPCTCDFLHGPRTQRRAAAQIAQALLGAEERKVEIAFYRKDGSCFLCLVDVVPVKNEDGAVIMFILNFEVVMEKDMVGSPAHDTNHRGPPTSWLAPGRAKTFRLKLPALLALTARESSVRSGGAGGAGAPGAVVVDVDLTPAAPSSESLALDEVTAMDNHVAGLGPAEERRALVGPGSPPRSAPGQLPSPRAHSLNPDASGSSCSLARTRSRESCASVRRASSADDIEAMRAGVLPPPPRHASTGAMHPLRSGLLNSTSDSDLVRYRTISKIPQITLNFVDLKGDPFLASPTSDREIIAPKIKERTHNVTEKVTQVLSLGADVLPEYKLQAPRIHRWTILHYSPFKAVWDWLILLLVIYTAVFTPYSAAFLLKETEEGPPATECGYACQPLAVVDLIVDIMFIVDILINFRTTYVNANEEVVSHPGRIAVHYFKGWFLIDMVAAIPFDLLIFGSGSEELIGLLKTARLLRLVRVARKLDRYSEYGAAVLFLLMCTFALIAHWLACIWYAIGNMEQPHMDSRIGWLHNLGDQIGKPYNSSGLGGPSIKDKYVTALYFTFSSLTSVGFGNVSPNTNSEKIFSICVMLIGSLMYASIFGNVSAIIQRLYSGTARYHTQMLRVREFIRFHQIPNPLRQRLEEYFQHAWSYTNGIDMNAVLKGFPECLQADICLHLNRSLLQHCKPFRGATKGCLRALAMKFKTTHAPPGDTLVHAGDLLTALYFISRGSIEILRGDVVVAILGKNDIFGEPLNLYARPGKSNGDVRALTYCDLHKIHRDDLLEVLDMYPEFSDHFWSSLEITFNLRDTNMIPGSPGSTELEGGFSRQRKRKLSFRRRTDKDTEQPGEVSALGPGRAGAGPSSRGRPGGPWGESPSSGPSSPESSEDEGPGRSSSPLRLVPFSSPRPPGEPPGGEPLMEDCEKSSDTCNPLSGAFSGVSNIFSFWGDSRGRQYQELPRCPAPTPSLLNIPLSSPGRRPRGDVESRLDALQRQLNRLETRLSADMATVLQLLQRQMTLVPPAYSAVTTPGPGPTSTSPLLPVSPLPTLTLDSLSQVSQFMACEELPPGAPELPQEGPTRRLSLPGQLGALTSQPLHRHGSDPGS

MC-38 [24] = assay: Cytotoxicity against mouse MC38 cells assessed as effect on cell viability at 0.07 to 150 uM incubated for 48 hrs by CCK-8 assay; format: functional, cell-based; conditions: dose 0.07-150 µM
CHO-K1 [25] = assay: Induction of PD-L1 internalization in CHO-K1 cells assessed as increase in PD-L1 concentration in nucleus at 10 uM incubated for 12 hrs by DIL-staining based confocal microscopic analysis analysis; format: functional, cell-based; conditions: Cricetulus griseus
PBMC [26] = assay: Induction of antitumor immunity in human PBMC cells expressing PD-L1 assessed as increase in IFN-gamma expression incubated for 12 hrs by ELISA analysis; format: functional, cell-based; conditions: dose 0.1-10 µM
[27] = target: T1, Programmed cell death protein 1/Programmed cell death 1 ligand 1; assay: as §1; format: cell-based; conditions: cho-k1

O=C(O)[C@@H](CO)NCc1cc(Cl)c(OCc2cccc(-c3ccccc3)c2Br)cc1OCc1ccc2nonc2c1 [listing 1 of 3 here]
inhibition in vivo at 5 mg/kg (MC-38 [1]): 52.5%

O=C(O)[C@@H](CO)NCc1cc(Cl)c(OCc2cccc(-c3cccc(OCCCN4CCC(O)CC4)c3)c2Cl)cc1OCc1ccc2nonc2c1
pKd [2]: 7.64
inhibition [3]: inactive
Activity [4]: 2.2 RLU
Activity (CHO-K1 [5]): Non-Toxic
Activity (Jurkat): Active
pIC50 [6]: 8.69
pEC50 [7]: 6.80

COP(=O)(NCCCOc1cccc(-c2cccc(COc3cc(OCc4ccc5nonc5c4)c(CN[C@H](CO)C(=O)O)cc3Cl)c2Cl)c1)OC
pIC50 [6]: 6.13

O=C(O)C1CCN(CCCCOc2cccc(-c3cccc(COc4cc(OCc5ccc6nonc6c5)c(CN[C@H](CO)C(=O)O)cc4Cl)c3Cl)c2)CC1
pIC50 [6]: 8.06

O=C(O)[C@@H](CO)NCc1cc(Cl)c(OCc2cccc(-c3cccc(OCCN(CCO)CCO)c3)c2Cl)cc1OCc1ccc2nonc2c1
pIC50 [6]: 6.96

O=C(O)[C@@H](CO)NCc1cc(Cl)c(OCc2cccc(-c3cccc(OCCCN4CCOCC4)c3)c2Cl)cc1OCc1ccc2nonc2c1
pIC50 [6]: 7.46

CCN(CC)CCCOc1cccc(-c2cccc(COc3cc(OCc4ccc5nonc5c4)c(CN[C@H](CO)C(=O)O)cc3Cl)c2Cl)c1
pIC50 [6]: 7.11

O=C(O)[C@@H](CO)NCc1cc(Cl)c(OCc2cccc(-c3cccc(OCCCCN4CCNCC4)c3)c2Cl)cc1OCc1ccc2nonc2c1
pIC50 [6]: 7.38

O=C(O)[C@@H](CO)NCc1cc(Cl)c(OCc2cccc(-c3cccc(OCCCNCCN4CCCCC4)c3)c2Cl)cc1OCc1ccc2nonc2c1
pIC50 [6]: 7.62

O=C(O)[C@@H](CO)NCc1cc(Cl)c(OCc2cccc(-c3cccc(OCCCN4CCOCC4)c3)c2F)cc1OCc1ccc2nonc2c1
pIC50 [6]: 7.90

O=C(O)[C@@H](CO)NCc1cc(Cl)c(OCc2cccc(-c3ccccc3)c2Br)cc1OCc1ccc2nonc2c1 [listing 2 of 3 here]
inhibition [3]: inactive
Activity [4]: 1.8 RLU
Activity (Jurkat): Active

O=C(O)[C@@H](CO)NCc1cc(Cl)c(OCc2cccc(-c3cccc(OCCN4CCOCC4)c3)c2Cl)cc1OCc1ccc2nonc2c1
pIC50 [6]: 6.92

O=C(O)[C@@H](CO)NCc1cc(Cl)c(OCc2cccc(-c3cccc(OCCCCN4CCC(O)CC4)c3)c2F)cc1OCc1ccc2nonc2c1
pIC50 [6]: 8.51

O=C(O)[C@@H](CO)NCc1cc(Cl)c(OCc2cccc(-c3cccc(OCCCCN4CCOCC4)c3)c2F)cc1OCc1ccc2nonc2c1
pIC50 [6]: 7.67

O=C(O)[C@@H](CO)NCc1cc(Cl)c(OCc2cccc(-c3cccc(OCCCN4CCC(O)CC4)c3)c2F)cc1OCc1ccc2nonc2c1
Activity (PBMC [8]): inactive
pKd [2]: 8.70
Activity (PBMC [9]): Dose-Dependent Effect
Activity [10]: Non-Toxic
Activity (CHO-K1 [11]): Active
inhibition [3]: inactive
Tmax [12]: 6 min
solubility [13]: 23.6 µM (≈ 17.4 µg/mL)
AUC(0-t) at 24 h [14]: 82.1 ng·h/mL
Activity [4]: 2.3 RLU
Activity [15]: Non-Toxic
half-life [16]: 5.3 h
Activity (CHO-K1 [5]): Non-Toxic
half-life [17]: 1.95 h
pKd [18]: 7.50
Activity (CHO-K1 [19]): Active
Activity (CT26): inactive
Cmax [20]: 45.6 ng/mL
Activity (CHO-K1 [21]): Dose-Dependent Effect
Activity (Jurkat): Active
logD [22]: 0.67
inhibition (INH) [23]: Not Active
Activity (MC-38 [24]): inactive
pIC50 [6]: 7.89
Activity (CHO-K1 [25]): Active
pEC50 [7]: 6.82
Activity (PBMC [26]): Dose-Dependent Effect

O=C(O)[C@@H](CO)NCc1cc(Cl)c(OCc2cccc(-c3cccc(OCCCNS(=O)(=O)N4CCOCC4)c3)c2Cl)cc1OCc1ccc2nonc2c1
pIC50 [6]: 7.06

O=C(O)[C@@H](CO)NCc1cc(Cl)c(OCc2cccc(-c3ccccc3)c2Br)cc1OCc1ccc2nonc2c1 [listing 3 of 3 here]
Activity (CHO-K1 [5]): Non-Toxic

O=C(O)[C@@H](CO)NCc1cc(Cl)c(OCc2cccc(-c3cccc(OCCCCN(CCO)CCO)c3)c2Cl)cc1OCc1ccc2nonc2c1
pIC50 [6]: 8.09

O=C(O)[C@@H](CO)NCc1cc(Cl)c(OCc2cccc(-c3cccc(OCCCN(CCO)CCO)c3)c2Cl)cc1OCc1ccc2nonc2c1
pKd [2]: 7.47
inhibition [3]: inactive
Activity [4]: 2 RLU
Activity (CHO-K1 [5]): Non-Toxic
Activity (Jurkat): Active
pIC50 [6]: 8.27
pEC50 [7]: 6.45

O=C(O)[C@@H](CO)NCc1cc(Cl)c(OCc2cccc(-c3cccc(OCCCCN4CCC(O)CC4)c3)c2Cl)cc1OCc1ccc2nonc2c1
pIC50 [6]: 8.48

O=C(O)[C@@H](CO)NCc1cc(Cl)c(OCc2cccc(-c3cccc(OCCN4CCC(O)CC4)c3)c2Cl)cc1OCc1ccc2nonc2c1
pIC50 [6]: 7.39

CCN(CC)C(=O)CCOc1cccc(-c2cccc(COc3cc(OCc4ccc5nonc5c4)c(CN[C@H](CO)C(=O)O)cc3Cl)c2Cl)c1
Activity (CHO-K1 [5]): Non-Toxic
Activity (Jurkat): Active
pIC50 [6]: 6.73
EC50 [27]: Not Active

O=C(O)[C@@H](CO)NCc1cc(Cl)c(OCc2cccc(-c3cccc(OCCCCN4CCC(CO)CC4)c3)c2Cl)cc1OCc1ccc2nonc2c1
pIC50 [6]: 8.46

O=C(O)[C@@H](CO)NCc1cc(Cl)c(OCc2cccc(-c3cccc(OCCCNCCO)c3)c2Cl)cc1OCc1ccc2nonc2c1
pIC50 [6]: 8.21

Reference: ChEMBL document CHEMBL5518218, “Discovery of Novel PD-L1 Small-Molecular Inhibitors with Potent In Vivo Anti-tumor Immune Activity” (J Med Chem, 2024)
